From PMC5711933, “Intracellular biomass flocculation as a key mechanism of rapid bacterial killing by cationic, amphipathic antimicrobial peptides and peptoids” (Scientific Reports, 2017) come the findings set out here.

In one data set the test system is P. aeruginosa. The experiment in a line: Bacterial plating of P. aeruginosa (CFU). Conditions: 12.5 µM, LB, 37 °C, average of three replicates. The data set is classed as cell-based, Pseudomonas aeruginosa.
The subject of data set [1] is E. coli bacterial ribosomes. Nature of the data set: Aggregation of bacterial ribosomes (optical density at 550 nm). The data set is classed as biochemical. To be noted: 1 µM ribosome solution, antimicrobial up to 800 µM, 10 min, λ = 550 nm.
Experimental: In a microcentrifuge tube, 5 µl of 1 µM purified bacterial ribosome solution (~40X diluted (v/v) from their intracellular concentration in bacterial cytosol)[62] was incubated with 5 µl of antimicrobial solution in a concentration range of 0–800 µM for 10 min. The absorbance of the solution was measured by UV-Vis spectroscopy at λ = 550 nm by a spectrophotometer (ND-1000, Thermo Scientific, Wilmington, DE). The values are reported as the average of three independent experiments with three replicates each.
For data set [2], the system named is Bioluminescent P. aeruginosa. It counts as cell-based, Pseudomonas aeruginosa. Conditions: 12.5 µM, LB, 37 °C; for Activity in bioluminescence kinetics assay (in words): up to 2 h.
Experimental: The decrease in bioluminescence at 37 °C was measured for a range of concentrations from 0 – 100 μM (Supp. Figs. S6 and S7).
Bioluminescent P. aeruginosa [73] was grown at 37 °C in Luria-Bertani (LB) broth. […] In a 96-well plate, 50 µL of P. aeruginosa solution (1 × 10^6 CFU/mL) was added to 50 µL of antimicrobial solution, and the bioluminescence was measured using an IVIS imaging system (a Xenogen product from Caliper Life Sciences, Hopkinton, MA) at 10 min intervals for 2 h. The reported values are the average of three independent experiments with two replicates each.
The subject of data set [3] is E. coli ATCC 35218. It counts as cell-based. Conditions: CAMHB, 35 °C, 16 h, final 5 × 10^5 CFU/mL, reproducible between three independent replicates.
Experimental: MICs were determined according to CLSI M7-A6 protocols in a 96-well microtiter plate. In test wells, 50 μL bacterial inoculum (1 × 10^6 CFU/ml) in cation-adjusted Mueller-Hinton broth (CAMHB) was added to 50 μL peptoid solution in CAMHB (prepared by 1:2 serial dilutions). Positive controls contained 50 μL inoculum and 50 μL CAMHB without peptoid. […] MIC values reported were reproducible between three independent experimental replicates, each consisting of two parallel trials.
Data set [4] concerns E. coli ATCC 35218. Nature of the data set: Bacterial count by plating after treatment, before TEM sample preparation. It counts as cell-based. To be noted: 1 hour in PBS pH 7.4, control 1 × 10^8 CFU/mL.
Experimental: E. coli ATCC 35218, grown overnight at 35 °C in Mueller-Hinton broth (MHB), were resuspended in 1X (150 mM) PBS, pH 7.4, and diluted to a concentration of 1 × 10^8 CFU/mL. Aqueous peptide/peptoid stock solutions were added to 1 mL aliquots of the suspension to the desired final concentration. After 1 hour, small volumes of each sample were serially diluted, plated, and incubated overnight at 35 °C, to be counted the following day. The remaining volume of each sample was centrifuged, and the pellet resuspended and enrobed in 5–10 µL of 2% low-melting agarose (gelling temperature 25° ± 5 °C) then drawn up into the tip of a Pasteur pipette. The solidified rods were extruded into fixative (2% glutaraldehyde, 2% paraformaldehyde, 50 mM PBS, pH 7.4). […] 50 nm thin sections of embedded samples were cut using a diamond knife, stained for 5 min in 5% aqueous uranyl acetate, then rinsed in H2O. Sections were examined in a JEOL 1230 TEM. Experimental conditions were each repeated in at least two independent trials. For each replicate of each sample, bacteria across the thin section were first surveyed to determine morphological characteristics representative of that sample, then images were captured of at least five bacteria displaying those morphologies with an emphasis on clean (i.e., orthogonal) transverse and/or longitudinal sections. Each image shown is thus representative of the ultrastructural characteristics observed in bacteria throughout a given sample and between replicates.
Another data set deals with EGFP-Luc plasmid. The experiment in a line: DNA retardation assay (gel electrophoresis). The data set is classed as binding. Conditions: EGFP-Luc plasmid in TBS, complexes 20 min at room temperature, 1–2% agarose gel.
Data set [5] in a line: RP-HPLC elution (% ACN) as measure of hydrophobicity. To be noted: chromatographic hydrophobicity; gradient of 5–95% acetonitrile (ACN) over 45 minutes, C18 column, 0.2 mL/min; average of three replicates. The data set is classed as physicochemical.
Another data set relates to Erythrocytes. The experiment in a line: Hemolysis assay. The data set is classed as cell-based. Conditions: human erythrocytes in PBS pH 7.4, 1 h at 37 °C, A350; three independent replicates (two for LL-37 and fowlicidin-1). As for the experimental part:
The plate was then centrifuged at 1200 g for 15 min, 100 μL of the supernatant from each well transferred to a fresh microtiter plate, and A350 measured.

Data set [6] concerns E. coli ATCC 35218. The experiment in a line: Bacterial count by plating after 1-hour treatment, before SEM sample preparation. Conditions: 1 hour in PBS, control 5 × 10^5 CFU/mL. The data set is classed as cell-based. On the procedure: E. coli was treated with 10 μM peptide or peptoid for 1 hour in phosphate-buffered saline (PBS). […] We used 10 μM peptide/peptoid for all samples since it is near the MICs of the majority of the oligomers.
Before fixation, aliquots of each samples were serially diluted and plated on agar to determine the concentration of live bacteria remaining after the 1-hour treatment. […] (1) SEM samples were treated in PBS (as discussed above), whereas MIC assays are performed in cation-adjusted Mueller-Hinton broth. AMPs and ampetoids are known to interact with ions in the media (for example, when switching from plain Mueller-Hinton broth to cation-adjusted Mueller-Hinton broth)[1], so differences in activity may be due to changes in media composition. (2) the treatments were for one hour only, whereas MICs are determined after 16 hours of growth. […] (3) Some of these compounds may cause inhibition of growth without causing bacterial cell death (i.e., they are bacteriostatic—which is what the MIC indicates—rather than bactericidal—which is determined by plating and counting colonies). […]
Overnight cultures of E. coli ATCC 35218 were centrifuged for 10 min and 2500 × g at room temperature, then resuspended in PBS. […] Bacterial concentrations of the diluted suspensions were calculated from their OD590 values using optical density curves derived from pre-determined concentrations. […]

[7] abbreviates: average of three independent experiments with two replicates each.

Read-outs that look alike come from different tables or passages of the source. Marks after values point to notes of the source that are not given here. Non-standard residues stand in square brackets, D forms with d. Residues, ends and D or L forms follow the SMILES beside them. N(1S-Me-propyl)Gly = CC[C@H](C)NCC(=O)O; Nspe = C[C@H](NCC(=O)O)c1ccccc1; Nphe = O=C(O)CNCc1ccccc1; Nlys = NCCCCNCC(=O)O A value given as a limit tells only on which side of the number the result lay.

Experimental for EGFP-Luc plasmid: DNA retardation was analyzed by gel electrophoresis. Peptoid/peptide-DNA complexes were formed by adding 10 µL of peptide/peptoid solution of varying concentrations to 10 µL DNA solution (EGFP-Luc plasmid in Tris-buffered saline (TBS) buffer), and the resulting solution was mixed by gentle aspiration. Complexes were incubated for 20 min at room temperature. After complex formation, 20 µL of each sample were loaded onto a 1–2% agarose gel in Tris/borate/EDTA (TBE) buffer, which ran at 120 V for 15 min. DNA bands on the gel were visualized under UV light by ethidium bromide staining.

Take `CN(C)[C@@H]1C(O)=C(C(N)=O)C(=O)[C@@]2(O)C(O)=C3C(=O)c4c(O)cccc4[C@@](C)(O)[C@H]3C[C@@H]12` [tetracycline]: in the data set on P. aeruginosa, the “Killing of bacteria within 10 minutes (CFU plating, in words)” value (from here on “Killing of bacteria within 10 minutes”) is recorded as “did not kill bacteria”. Also, the “Aggregation of ribosomes (in words)” value in data set [1] was “no aggregation”. Besides, the “Decrease in bioluminescence at 2 h” value in data set [2] (setting [7]) was ~ 97%.
`CC[C@H](C)[C@H](NC(=O)CN)C(=O)NCC(=O)N[C@@H](C)C(=O)N[C@H](C(=O)N[C@@H](CC(C)C)C(=O)N[C@@H](CCCCN)C(=O)N[C@H](C(=O)N[C@@H](CC(C)C)C(=O)N[C@H](C(=O)N[C@H](C(=O)NCC(=O)N[C@@H](CC(C)C)C(=O)N1CCC[C@H]1C(=O)N[C@@H](C)C(=O)N[C@@H](CC(C)C)C(=O)N[C@H](C(=O)N[C@@H](CO)C(=O)N[C@@H](Cc1c[nH]c2ccccc12)C(=O)N[C@H](C(=O)N[C@@H](CCCCN)C(=O)N[C@@H](CCCNC(=N)N)C(=O)N[C@@H](CCCCN)C(=O)N[C@@H](CCCNC(=N)N)C(=O)N[C@@H](CCC(N)=O)C(=O)N[C@@H](CCC(N)=O)C(N)=O)[C@@H](C)CC)[C@@H](C)CC)[C@@H](C)O)[C@@H](C)O)C(C)C)C(C)C` [melittin, reference compound]: the “E. coli ATCC 35218 MIC” value with E. coli ATCC 35218 [3] is 12.5 µM.
As to `C[C@@H](c1ccccc1)N(CC(N)=O)C(=O)CN(CCCCN)C(=O)CN(CCCCN)C(=O)CN(C(=O)CN(C(=O)CN(CCCCN)C(=O)CN(C(=O)CN(CCCCN)C(=O)CN(CCCCN)C(=O)CN(C(=O)CN(C(=O)CNCCCCN)[C@@H](C)c1ccccc1)[C@@H](C)c1ccccc1)[C@@H](C)c1ccccc1)[C@@H](C)c1ccccc1)[C@@H](C)c1ccccc1` [1-NLys5,11] (H-[Nlys][Nspe][Nspe][Nlys][Nlys][Nspe][Nlys][Nspe][Nspe][Nlys][Nlys][Nspe]-NH2; N-terminus and C-terminus assumed), in the data set with E. coli ATCC 35218 [4], the “TEM: Bacterial count after 10 µM treatment (% of control)” value is recorded as 100 % of control and the “TEM: Bacterial count after 100 µM treatment (% of control)” value is 30 % of control. The “Retardation assay: mass of compound required to completely retard migration of 1 µg of DNA” value (from here on “Retardation assay: mass”) in the data set on EGFP-Luc plasmid came out at 1.0 µg. Also, the “% ACN at RP-HPLC elution” value in data set [5] is given as 51.2%.
Take oligomycin A: the “Killing of bacteria within 10 minutes” value in the data set with P. aeruginosa is “did not kill bacteria”. In data set [1], the “Aggregation of ribosomes (in words)” value is reported as “no aggregation”. Moreover, the “Activity in bioluminescence kinetics assay (in words)” value in [2] was “inactive”.
For `C[C@@H](c1ccccc1)N(CC(N)=O)C(=O)CN(C(=O)CN(CCCCN)C(=O)[C@@H]1CCCN1C(=O)CN(C(=O)CN(CCCCN)C(=O)CN(C(=O)CN(C(=O)CN(CCCCN)C(=O)CN(C(=O)CN(C(=O)CNCCCCN)[C@@H](C)c1ccccc1)[C@@H](C)c1ccccc1)[C@@H](C)c1ccccc1)[C@@H](C)c1ccccc1)[C@@H](C)c1ccccc1)[C@@H](C)c1ccccc1` [1-Pro9] (H-[Nlys][Nspe][Nspe][Nlys][Nspe][Nspe][Nlys][Nspe]P[Nlys][Nspe][Nspe]-NH2), in [5], the “% ACN at RP-HPLC elution” value is listed as 62.6%. Besides, the “Decrease in bioluminescence at 2 h” value in [2] (setting [7]) is ~ 20%.
Take `NCCCCNCC(=O)N(CC(=O)N(CC(=O)N(CCCCN)CC(=O)N(CC(=O)N(CC(=O)N(CCCCN)CC(=O)N(CC(=O)N(CC(=O)N(CCCCN)CC(=O)N(CC(=O)N(CC(N)=O)Cc1ccccc1)Cc1ccccc1)Cc1ccccc1)Cc1ccccc1)Cc1ccccc1)Cc1ccccc1)Cc1ccccc1)Cc1ccccc1` [1 achiral] (H-[Nlys][Nphe][Nphe][Nlys][Nphe][Nphe][Nlys][Nphe][Nphe][Nlys][Nphe][Nphe]-NH2): in the data set on E. coli ATCC 35218 [4], the “TEM: Bacterial count after 10 µM treatment (% of control)” value was 100 % of control and the “TEM: Bacterial count after 100 µM treatment (% of control)” value is 0.03 % of control. In addition, the “Retardation assay: mass” value in the data set on EGFP-Luc plasmid came to 1.5 µg. Further, the “% ACN at RP-HPLC elution” value in data set [5] amounted to 60.4%. In data set [2] (10 min, average of three independent experiments with two replicates each), the “Decrease in bioluminescence within 10 min” value is reported as ~ 99.9%.
Consider `O=C(O)c1cn(C2CC2)c2cc(N3CCNCC3)c(F)cc2c1=O` [Ciprofloxacin], for which the “Killing of bacteria within 10 minutes” value with P. aeruginosa was “did not kill bacteria”. In addition, the “Aggregation of ribosomes (in words)” value in data set [1] is “no aggregation”. Moreover, in data set [2] (1 h, average of three independent experiments with two replicates each), the “Decrease in bioluminescence at 1 h” value is ~ 97%.
As to `CC[C@H](C)[C@H](NC(=O)[C@H](CCCCN)NC(=O)[C@H](CCC(=O)O)NC(=O)[C@H](CCCCN)NC(=O)[C@H](CO)NC(=O)[C@H](CCCCN)NC(=O)[C@H](CCCNC(=N)N)NC(=O)[C@H](Cc1ccccc1)NC(=O)[C@H](Cc1ccccc1)NC(=O)[C@H](CC(=O)O)NC(=O)CNC(=O)[C@H](CC(C)C)NC(=O)[C@@H](N)CC(C)C)C(=O)NCC(=O)N[C@@H](CCCCN)C(=O)N[C@@H](CCC(=O)O)C(=O)N[C@@H](Cc1ccccc1)C(=O)N[C@@H](CCCCN)C(=O)N[C@@H](CCCNC(=N)N)C(=O)N[C@H](C(=O)N[C@H](C(=O)N[C@@H](CCC(N)=O)C(=O)N[C@@H](CCCNC(=N)N)C(=O)N[C@H](C(=O)N[C@@H](CCCCN)C(=O)N[C@@H](CC(=O)O)C(=O)N[C@@H](Cc1ccccc1)C(=O)N[C@@H](CC(C)C)C(=O)N[C@@H](CCCNC(=N)N)C(=O)N[C@@H](CC(N)=O)C(=O)N[C@@H](CC(C)C)C(=O)N[C@H](C(=O)N1CCC[C@H]1C(=O)N[C@@H](CCCNC(=N)N)C(=O)N[C@H](C(=O)N[C@@H](CCC(=O)O)C(=O)N[C@@H](CO)C(=O)O)[C@@H](C)O)C(C)C)[C@@H](C)CC)C(C)C)[C@@H](C)CC` [LL-37, reference compound], in the data set on Erythrocytes, the “HD10 (hemolytic dose; concentration for 10% hemolysis)” value is recorded as >100/>100^§ µM and the “HD50 (hemolytic dose; concentration for 50% hemolysis)” value is >100/>100^§ µM. Further, in the data set on E. coli ATCC 35218 [3], the “E. coli ATCC 35218 MIC” value is recorded as 12.5 µM.
`CC[C@H](C)N(CC(N)=O)C(=O)CN(C(=O)CN(CCCCN)C(=O)CN(C(=O)CN(C(=O)CN(CCCCN)C(=O)CN(C(=O)CN(C(=O)CN(CCCCN)C(=O)CN(C(=O)CN(C(=O)CNCCCCN)[C@@H](C)CC)[C@@H](C)CC)[C@@H](C)CC)[C@@H](C)CC)[C@@H](C)CC)[C@@H](C)CC)[C@@H](C)CC` [compound 2] (H-[Nlys][N(1S-Me-propyl)Gly][N(1S-Me-propyl)Gly][Nlys][N(1S-Me-propyl)Gly][N(1S-Me-propyl)Gly][Nlys][N(1S-Me-propyl)Gly][N(1S-Me-propyl)Gly][Nlys][N(1S-Me-propyl)Gly][N(1S-Me-propyl)Gly]-NH2): in the data set with E. coli ATCC 35218 [4], the “TEM: Bacterial count after 10 µM treatment (% of control)” value is on record as 100 % of control and the “TEM: Bacterial count after 100 µM treatment (% of control)” value is 100 % of control. Moreover, the “Retardation assay: mass” value in the data set on EGFP-Luc plasmid is on record as >145^§ µg. For the same molecule, in the data set with E. coli ATCC 35218 [3] (listed as peptoid 2), the “E. coli ATCC 35218 MIC” value is recorded as above 100 µM. Also, the “% ACN at RP-HPLC elution” value in data set [5] is listed as 52.4%. Also, the “Aggregation of ribosomes (in words)” value in data set [1] was “did not cause aggregation”. Besides, the “SEM: Bacterial count after 10 µM treatment (% of control)” value with E. coli ATCC 35218 [6] is reported as 100 % of control. Besides, the “Activity in bioluminescence kinetics assay (in words)” value in data set [2] is given as “completely ineffective”.
